Data taken from patent US20150031102A1, “METHODS AND COMPOSITIONS FOR ENHANCED PRODUCTION OF BUTANOL BY CLOSTRIDIA” (Butrolix LLC, priority 2012, published 2015).

Tested on: C. acetobutylicum
Assay: Continuous culture, 2.5 L, dilution rate 0.01 per hour, 20 days (butanol, residual glucose, optical density, pH, yield, productivity)
Format: cell-based, Clostridium acetobutylicum
Conditions: for Productivity / Yield / Butanol: 50 nM peptide, Table 54; for Butanol: average ± SD of triplicate samples
Description: Lastly, 2.5 L continuous culture studies were conducted using the optimum peptide treatment level that was determined by the sequential batch transfer experiments. An untreated and a peptide-treated culture were grown in parallel, identical vessels with identical dilution rates for 20 days. The continuous cultures were initiated by inoculating 2.25 L of sterile medium in each culture vessel using 250 mL of peptide-treated and untreated batch cultures that had been grown for 24 hours. The batch cultures used as inoculum were the third of sequential batch transfer cultures, which made inoculation of the continuous cultures the fourth sequential transfer. After inoculation, the continuous cultures were grown for 24 hours before beginning to feed fresh medium at a rate of 0.01 volumes per hour. Triplicate samples were taken from each continuous culture every 24 hours. Optical density of the replicates was measured and culture supernatants were recovered following centrifugation and analyzed later for butanol and residual glucose concentrations. The analyses were used to calculate yield and productivity of the cultures.
Clostridium acetobutylicum strain ATCC 824 was used in all experiments and the growth medium used for sequential batch transfer, time course, and continuous culture experiments contained yeast extract, casamino acids, L-cysteine, L-asparagine, phosphate buffer, trace minerals, and 6% glucose. What are believed to be quorum-sensing peptides that were used in the experiments were chemically synthesized peptides SEQ ID NO: 143 (amino acid sequence: SYPGWSW) and SEQ ID NO: 144 (amino acid sequence: ILILISG). Routine growth of the bacteria as well as the sequential batch and time course experiments were conducted in a Form a Scientific Model 1029 anaerobic gas chamber at 32° C. Continuous cultures were performed at 32° C. using duplicate New Brunswick Scientific BioFlo 3000 apparati with a dilution rate of 0.01 volume per hour, 75 rpm agitation, and nitrogen gas sparging. Optical density of culture samples was measured at 600 nm in a Beckman DU 600 series spectrophotometer and glucose was analyzed using a YSI Model 2700 Select Biochemistry Analyzer with internal glucose calibration. Butanol concentrations were determined by measuring experimental and standard samples using a Varian Saturn 3 Gas Chromatograph/Mass Spectrometer and calculating butanol concentrations using standard curves.
Data from continuous cultures using a 6% glucose medium in vessels with a working volume of 2.5 L run at a dilution rate of 0.01 per hour. Two vessels were run in parallel, one of which was treated with 50 nM of peptide SEQ ID NO: 143 and the other was untreated. The vessels were sparged continuously with nitrogen gas to maintain anaerobic conditions and were agitated at 75 rpm. On Day 0, the vessels were inoculated with a 1/10 volume (250 mL) of overnight cultures that were either treated with peptide or untreated, and that were the third transfer of the cultures, which made inoculation of the continuous cultures the fourth transfer. Triplicate samples were collected aseptically from each vessel immediately after inoculation and every 24 hours thereafter. The cultures were allowed to grow for 24 hours prior to beginning to feed fresh medium, and were maintained for 20 days each, without pH control. The optical density of each sample was measured immediately at 600 nm, the samples were centrifuged to remove cells, and the cell-free supernatants were frozen for later analysis. A representative experiment is shown in FIG. 19 and Tables 34 and 35.
Using the optimum peptide treatment level that was determined by the sequential batch transfer experiments, 2.5 L continuous culture studies were conducted. An untreated and a peptide-treated culture were grown in parallel, identical vessels using the same dilution rates for 20 days for each of the peptides BP110517 and BP1106213. […]

[1] = 24 hour period preceding day 10
[2] = 24 hour period preceding day 11
[3] = 24 hour period preceding day 12
[4] = 24 hour period preceding day 13
[5] = 24 hour period preceding day 14
[6] = 24 hour period preceding day 15
[7] = 24 hour period preceding day 16
[8] = 24 hour period preceding day 17
[9] = 24 hour period preceding day 18
[10] = 24 hour period preceding day 19
[11] = 24 hour period preceding day 20

Substance: ILILISG (Derived from Clostridium acetobutylicum SEQ ID NO: 110) [peptide SEQ ID NO: 144]
- Butanol content compared with the untreated culture (50 nM BP1106213, starting at day 2 and throughout the rest of the study): untreated culture remained significantly higher
- pH (50 nM BP1106213 and its untreated control, after the first 4 days, for the duration of both cultures): ~4.2
- Optical density (600 nm) (50 nM BP1106213 and its untreated control, almost the complete duration of the cultures): above 2.0
- Glucose consumption (50 nM BP1106213 and untreated, day three through the end of the study): entirely consumed
- Productivity (24 hour period preceding day 1): 0.53 g Butanol/L-h
- Yield (24 hour period preceding day 1): 0.19 g Butanol/g Glucose
- Productivity (24 hour period preceding day 2): −0.17 g Butanol/L-h
- Yield (24 hour period preceding day 2): −0.28 g Butanol/g Glucose
- Productivity (24 hour period preceding day 3): 0.07 g Butanol/L-h
- Yield (24 hour period preceding day 3): 0.11 g Butanol/g Glucose
- Productivity (24 hour period preceding day 4): 0.29 g Butanol/L-h
- Yield (24 hour period preceding day 4): 0.46 g Butanol/g Glucose
- Productivity (24 hour period preceding day 5): 0.24 g Butanol/L-h
- Yield (24 hour period preceding day 5): 0.39 g Butanol/g Glucose
- Productivity (24 hour period preceding day 6): 0.07 g Butanol/L-h
- Yield (24 hour period preceding day 6): 0.11 g Butanol/g Glucose
- Productivity (24 hour period preceding day 7): 0.14 g Butanol/L-h
- Yield (24 hour period preceding day 7): 0.23 g Butanol/g Glucose
- Productivity (24 hour period preceding day 8): 0.06 g Butanol/L-h
- Yield (24 hour period preceding day 8): 0.10 g Butanol/g Glucose
- Productivity (24 hour period preceding day 9): 0.07 g Butanol/L-h
- Yield (24 hour period preceding day 9): 0.11 g Butanol/g Glucose
- Productivity [1]: 0.00 g Butanol/L-h
- Yield [1]: 0.01 g Butanol/g Glucose
- Productivity [2]: 0.20 g Butanol/L-h
- Yield [2]: 0.33 g Butanol/g Glucose
- Productivity [3]: 0.02 g Butanol/L-h
- Yield [3]: 0.04 g Butanol/g Glucose
- Productivity [4]: −0.11 g Butanol/L-h
- Yield [4]: −0.18 g Butanol/g Glucose
- Productivity [5]: 0.00 g Butanol/L-h
- Yield [5]: 0.00 g Butanol/g Glucose
- Productivity [6]: 0.03 g Butanol/L-h
- Yield [6]: 0.05 g Butanol/g Glucose
- Productivity [7]: 0.11 g Butanol/L-h
- Yield [7]: 0.17 g Butanol/g Glucose
- Productivity [8]: −0.01 g Butanol/L-h
- Yield [8]: −0.02 g Butanol/g Glucose
- Productivity [9]: 0.01 g Butanol/L-h
- Yield [9]: 0.01 g Butanol/g Glucose
- Productivity [10]: 0.06 g Butanol/L-h
- Yield [10]: 0.09 g Butanol/g Glucose
- Productivity [11]: 0.01 g Butanol/L-h
- Yield [11]: 0.01 g Butanol/g Glucose
- Butanol (day 0): 0.6 ± 0.0 g/L
- Butanol (day 1): 7.0 ± 0.5 g/L
- Butanol (day 2): 8.2 ± 0.9 g/L
- Butanol (day 3): 6.9 ± 0.6 g/L
- Butanol (day 4): 5.0 ± 0.2 g/L
- Butanol (day 5): 4.6 ± 0.3 g/L
- Butanol (day 6): 5.2 ± 0.2 g/L
- Butanol (day 7): 4.9 ± 0.2 g/L
- Butanol (day 8): 5.6 ± 0.0 g/L
- Butanol (day 9): 5.1 ± 0.1 g/L
- Butanol (day 10): 5.1 ± 0.0 g/L
- Butanol (day 11): 5.2 ± 0.2 g/L
- Butanol (day 12): 5.1 ± 0.1 g/L
- Butanol (day 13): 5.0 ± 0.1 g/L
- Butanol (day 14): 5.4 ± 0.1 g/L
- Butanol (day 15): 5.5 ± 0.1 g/L
- Butanol (day 16): 5.5 ± 0.1 g/L
- Butanol (day 17): 5.3 ± 0.1 g/L
- Butanol (day 18): 5.1 ± 0.2 g/L
- Butanol (day 19): 4.3 ± 0.2 g/L
- Butanol (day 20): 2.9 ± 0.1 g/L
- Effect on differentiation and butanol production (continuous cultures): strong inhibitor of differentiation and butanol production
